Series [1] concerns the target T1, Broad substrate specificity ATP-binding cassette transporter ABCG2 (Homo sapiens, UniProt Q9UNQ0).
T1 sequence (Q9UNQ0 whole entry): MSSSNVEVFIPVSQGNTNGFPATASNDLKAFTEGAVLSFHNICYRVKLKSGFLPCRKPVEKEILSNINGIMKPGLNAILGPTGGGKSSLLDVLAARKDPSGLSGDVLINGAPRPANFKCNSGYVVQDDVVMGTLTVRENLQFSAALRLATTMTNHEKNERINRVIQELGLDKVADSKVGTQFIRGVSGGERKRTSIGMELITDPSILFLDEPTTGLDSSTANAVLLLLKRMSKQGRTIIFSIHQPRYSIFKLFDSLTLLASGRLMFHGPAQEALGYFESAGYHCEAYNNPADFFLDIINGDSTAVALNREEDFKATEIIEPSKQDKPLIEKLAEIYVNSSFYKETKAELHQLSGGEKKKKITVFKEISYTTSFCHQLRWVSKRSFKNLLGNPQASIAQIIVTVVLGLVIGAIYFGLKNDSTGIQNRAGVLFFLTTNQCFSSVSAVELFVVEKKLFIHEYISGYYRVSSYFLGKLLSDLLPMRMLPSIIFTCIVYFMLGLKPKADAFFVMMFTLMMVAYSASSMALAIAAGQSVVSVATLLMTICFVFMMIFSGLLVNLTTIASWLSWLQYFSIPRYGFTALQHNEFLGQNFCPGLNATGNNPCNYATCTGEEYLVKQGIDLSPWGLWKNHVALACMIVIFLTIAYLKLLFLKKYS
The series can be described thus: TP_TRANSPORTER: stimulation of ATPase activity (0.1~1 u M) in BCRP-expressing Sf9 cells. It is filed as functional, cell membranes, Membrane.

For series [2], the target named is T1, Broad substrate specificity ATP-binding cassette transporter ABCG2. Description: TP_TRANSPORTER: efflux of Hoechst33342 in BCRP-expressing Sf9 cells. It is filed as functional.

One may read the IC50 as the point on the concentration scale where inhibition reaches its midpoint. Take `CC#CC(=O)Nc1ccc2ncnc(Nc3cccc(Br)c3)c2c1`: in series [1], the Activity entry was “inhibitor []”. Besides, in series [2], the IC50 stood at 200 nM.

Regarding `COc1cc2ncnc(Nc3ccc(F)c(Cl)c3)c2cc1OCCCN1CCOCC1` [GEFITINIB], in series [1], the Activity result was “inhibitor []”.

(Values after ChEMBL document CHEMBL2074416, “High-affinity interaction of tyrosine kinase inhibitors with the ABCG2 multidrug transporter” (Mol Pharmacol, 2004).)
